The values that follow come from BindingDB's records for doi:10.3109/14756366.2011.649267 (South Dakota State University, 2013).

The target of the test is T1, Glutaredoxin-1 (Human, UniProt P35754).
T1 sequence (P35754 whole entry): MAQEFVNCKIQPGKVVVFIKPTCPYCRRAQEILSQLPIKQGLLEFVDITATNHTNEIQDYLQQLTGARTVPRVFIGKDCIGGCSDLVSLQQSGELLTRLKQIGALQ
The experiment in a line: GRX Assay. To be noted: pH 8; 25 °C. Here is the method:
Human GRX-1 (0.25 unit/mL) was incubated at 25 °C with increasing concentrations of 2-AAPA (25, 50, 100, and 200 μM) and BSA (1 mg/mL). Aliquots were withdrawn for determination of GRX activity at 3, 10, and 20 min. Control incubations without 2-AAPA were conducted in parallel. The aliquots were added to the GRX assay solution, and enzyme activity was determined from a coupled reaction with GR based on a literature reported procedure with minor modification. In this assay, a mixed disulfide between GSH and the mercaptoethanol moiety derived from 2-hydroxyethyldisulfide (HED) served as the substrate for GRX; briefly GSH (10 mM) and HED (7 mM) were premixed in water for 5 min before transferring onto ice. The final GRXassay solution contained GSH (1 mM), HED (0.7mM), GR (0.02 units/mL), NADPH (0.2 mM), and bovine serum albumin (BSA, 1 mg/mL) in Trisbuffer (pH 8, 0.1 M). Theactivity was determined by monitoring the disappearance of NADPH spectrophotometrically at λ = 340 nm [Holmgren et al., Meth. Enzymol., 252:283-292].

Usually Ki stands for the equilibrium dissociation constant of an inhibitor or competing ligand from its target. Take `CC(=O)NC(CSC(=S)Nc1ccc(NC(=S)SCC(NC(C)=O)C(=O)O)cc1)C(=O)O` (stereo unspecified) [2-AAPA]: the affinity, expressed as Ki, was 91.3 µM.
